Laboratory results taken from ChEMBL document CHEMBL5120862, “Novel non-covalent LSD1 inhibitors endowed with anticancer effects in leukemia and solid tumor cellular models” (Eur J Med Chem, 2022).
Blank lines part the entries; values can stand above or below the compound they belong to. The source made the active and inactive calls. The calls are words filed in the database; no cut-off is given here.

Tests used:
[1] = biological target: T1, Histone-lysine N-methyltransferase EHMT2 (Homo sapiens, UniProt Q96KQ7); assay: Inhibition of G9a (unknown origin) assessed as reduction in substrate methylation using histone H3 and SAM as substrate measured after 15 to 60 mins by microfluidic capillary electrophoresis analysis
T1 sequence (Q96KQ7 whole entry): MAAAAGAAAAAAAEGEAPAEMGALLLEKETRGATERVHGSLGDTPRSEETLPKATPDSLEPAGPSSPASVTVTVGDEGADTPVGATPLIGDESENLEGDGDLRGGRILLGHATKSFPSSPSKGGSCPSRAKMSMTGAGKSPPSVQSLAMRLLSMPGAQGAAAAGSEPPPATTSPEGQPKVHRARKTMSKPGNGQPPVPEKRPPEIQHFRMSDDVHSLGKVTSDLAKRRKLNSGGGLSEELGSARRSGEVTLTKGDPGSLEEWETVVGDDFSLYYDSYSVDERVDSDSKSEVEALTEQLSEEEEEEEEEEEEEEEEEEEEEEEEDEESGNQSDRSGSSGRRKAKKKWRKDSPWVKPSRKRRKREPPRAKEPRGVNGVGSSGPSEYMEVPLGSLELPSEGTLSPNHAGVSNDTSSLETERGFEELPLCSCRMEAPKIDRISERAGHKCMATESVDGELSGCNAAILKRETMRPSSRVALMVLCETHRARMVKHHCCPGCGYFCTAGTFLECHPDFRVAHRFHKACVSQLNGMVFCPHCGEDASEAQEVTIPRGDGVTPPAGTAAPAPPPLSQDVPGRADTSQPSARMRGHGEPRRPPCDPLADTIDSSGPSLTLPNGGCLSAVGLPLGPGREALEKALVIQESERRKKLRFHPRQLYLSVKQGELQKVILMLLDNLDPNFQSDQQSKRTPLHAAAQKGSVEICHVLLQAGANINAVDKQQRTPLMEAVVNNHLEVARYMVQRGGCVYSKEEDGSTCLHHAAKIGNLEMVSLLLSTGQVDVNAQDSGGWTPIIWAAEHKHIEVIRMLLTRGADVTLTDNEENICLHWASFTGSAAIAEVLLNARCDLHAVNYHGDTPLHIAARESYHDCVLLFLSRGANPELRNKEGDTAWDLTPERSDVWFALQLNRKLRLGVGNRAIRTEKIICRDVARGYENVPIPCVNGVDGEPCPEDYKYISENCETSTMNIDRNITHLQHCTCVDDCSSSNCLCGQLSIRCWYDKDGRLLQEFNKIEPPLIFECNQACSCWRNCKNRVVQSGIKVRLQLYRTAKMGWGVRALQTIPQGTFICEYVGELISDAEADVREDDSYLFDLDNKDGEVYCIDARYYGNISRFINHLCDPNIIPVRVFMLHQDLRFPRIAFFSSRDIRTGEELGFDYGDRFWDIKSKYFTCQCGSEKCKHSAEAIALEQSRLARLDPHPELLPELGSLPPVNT

[2] = biological target: Histone-lysine N-methyltransferase, H3 lysine-79 specific (Homo sapiens) (UniProt Q8TEK3); assay: Inhibition of […] (unknown origin) using [3H]SAM and HeLa oligo nucleosomes as substrates at 100 uM incubated for 1 hr relative to control
Histone-lysine N-methyltransferase, H3 lysine-79 specific (Homo sapiens), sequence (Q8TEK3 whole entry, looked up): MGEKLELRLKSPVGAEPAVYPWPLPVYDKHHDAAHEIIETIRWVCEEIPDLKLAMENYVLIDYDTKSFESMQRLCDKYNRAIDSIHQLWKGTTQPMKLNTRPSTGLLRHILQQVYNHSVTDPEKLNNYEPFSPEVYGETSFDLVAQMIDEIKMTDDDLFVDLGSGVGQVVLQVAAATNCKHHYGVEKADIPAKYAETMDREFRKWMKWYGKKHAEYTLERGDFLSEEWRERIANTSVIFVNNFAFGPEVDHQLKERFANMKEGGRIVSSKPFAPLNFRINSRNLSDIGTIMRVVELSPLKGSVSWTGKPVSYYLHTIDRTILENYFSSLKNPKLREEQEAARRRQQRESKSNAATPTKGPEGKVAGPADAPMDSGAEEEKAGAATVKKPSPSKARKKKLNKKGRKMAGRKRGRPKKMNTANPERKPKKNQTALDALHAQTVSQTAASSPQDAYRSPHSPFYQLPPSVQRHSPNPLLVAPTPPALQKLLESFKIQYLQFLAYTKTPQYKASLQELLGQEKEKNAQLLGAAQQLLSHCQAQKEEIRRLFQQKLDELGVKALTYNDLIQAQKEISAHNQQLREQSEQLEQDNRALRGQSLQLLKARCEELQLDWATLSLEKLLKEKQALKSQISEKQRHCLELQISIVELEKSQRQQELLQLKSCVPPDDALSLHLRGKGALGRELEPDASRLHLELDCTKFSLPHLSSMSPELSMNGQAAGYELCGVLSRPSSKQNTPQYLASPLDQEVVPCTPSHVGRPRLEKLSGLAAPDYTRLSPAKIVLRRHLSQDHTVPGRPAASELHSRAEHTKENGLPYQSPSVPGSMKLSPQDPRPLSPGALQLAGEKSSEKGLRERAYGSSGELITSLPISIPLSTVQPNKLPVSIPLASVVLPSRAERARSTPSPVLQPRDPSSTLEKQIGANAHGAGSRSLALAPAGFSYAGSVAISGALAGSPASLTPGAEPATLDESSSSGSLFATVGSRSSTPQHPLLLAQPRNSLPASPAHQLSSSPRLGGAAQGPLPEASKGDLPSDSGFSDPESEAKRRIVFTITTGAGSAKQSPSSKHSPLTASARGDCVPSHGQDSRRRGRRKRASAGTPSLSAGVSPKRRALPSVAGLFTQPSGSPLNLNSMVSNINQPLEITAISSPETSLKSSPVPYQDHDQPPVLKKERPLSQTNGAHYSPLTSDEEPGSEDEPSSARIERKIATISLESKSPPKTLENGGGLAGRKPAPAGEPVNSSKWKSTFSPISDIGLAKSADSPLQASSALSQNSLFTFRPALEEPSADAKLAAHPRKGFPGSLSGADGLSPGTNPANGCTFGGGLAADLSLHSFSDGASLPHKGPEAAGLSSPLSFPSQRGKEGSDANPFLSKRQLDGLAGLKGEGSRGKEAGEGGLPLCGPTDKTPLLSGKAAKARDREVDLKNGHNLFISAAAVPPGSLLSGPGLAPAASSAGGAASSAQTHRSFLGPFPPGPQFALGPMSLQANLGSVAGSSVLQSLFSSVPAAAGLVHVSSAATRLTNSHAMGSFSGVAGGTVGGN

[3] = biological target: Histone-lysine N-methyltransferase EZH2 (Homo sapiens) (UniProt Q15910); assay: Inhibition of EZH2 (unknown origin) using [3H]SAM and chicken core histone as substrates at 100 uM incubated for 1 hr relative to control
Histone-lysine N-methyltransferase EZH2 (Homo sapiens), sequence (Q15910 whole entry, looked up): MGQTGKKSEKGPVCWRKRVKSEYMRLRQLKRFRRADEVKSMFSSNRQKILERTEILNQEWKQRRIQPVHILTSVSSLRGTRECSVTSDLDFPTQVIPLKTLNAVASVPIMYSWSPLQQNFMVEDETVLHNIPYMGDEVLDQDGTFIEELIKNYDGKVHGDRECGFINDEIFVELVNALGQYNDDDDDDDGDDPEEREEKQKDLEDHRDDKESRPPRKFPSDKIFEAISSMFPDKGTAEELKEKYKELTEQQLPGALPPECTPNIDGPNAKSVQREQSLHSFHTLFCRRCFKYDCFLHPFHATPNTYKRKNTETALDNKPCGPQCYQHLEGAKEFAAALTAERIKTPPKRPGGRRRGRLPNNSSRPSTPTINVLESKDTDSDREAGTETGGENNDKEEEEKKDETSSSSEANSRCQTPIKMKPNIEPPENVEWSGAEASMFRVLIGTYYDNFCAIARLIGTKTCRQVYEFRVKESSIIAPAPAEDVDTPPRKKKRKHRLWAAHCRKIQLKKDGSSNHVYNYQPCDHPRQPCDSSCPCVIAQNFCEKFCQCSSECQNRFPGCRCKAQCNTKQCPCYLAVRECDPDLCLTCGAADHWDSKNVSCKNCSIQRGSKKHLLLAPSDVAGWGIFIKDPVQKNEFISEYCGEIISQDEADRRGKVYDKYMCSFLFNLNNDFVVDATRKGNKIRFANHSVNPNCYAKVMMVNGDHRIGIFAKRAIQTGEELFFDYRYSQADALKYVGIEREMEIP

[4] = biological target: T2, MAO-A (amine oxidase [flavin-containing] A) (Homo sapiens, UniProt P21397); assay: Inhibition of human MAO-A using p-tyramine as substrate at 100 uM by fluorimetric analysis relative to control; conditions: human MAO-A enzyme, probe p-tyramine
T2 sequence (P21397 whole entry): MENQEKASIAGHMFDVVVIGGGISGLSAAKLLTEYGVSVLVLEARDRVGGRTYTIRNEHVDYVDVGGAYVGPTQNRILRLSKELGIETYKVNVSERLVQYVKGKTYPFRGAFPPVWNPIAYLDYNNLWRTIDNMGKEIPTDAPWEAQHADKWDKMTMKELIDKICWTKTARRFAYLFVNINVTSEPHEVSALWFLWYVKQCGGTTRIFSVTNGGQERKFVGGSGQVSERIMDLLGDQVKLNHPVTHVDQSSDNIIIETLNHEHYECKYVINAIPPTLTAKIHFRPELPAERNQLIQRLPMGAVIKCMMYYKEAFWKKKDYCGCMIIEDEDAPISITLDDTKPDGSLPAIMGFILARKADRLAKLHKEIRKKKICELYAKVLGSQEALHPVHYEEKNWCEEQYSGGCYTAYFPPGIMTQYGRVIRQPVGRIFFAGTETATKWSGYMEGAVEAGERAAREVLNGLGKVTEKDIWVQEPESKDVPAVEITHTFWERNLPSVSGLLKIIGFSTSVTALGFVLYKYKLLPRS

[5] = biological target: T3, MAO-B (amine oxidase [flavin-containing] B) (Homo sapiens, UniProt P27338); assay: Inhibition of human MAO-B using p-tyramine as substrate at 100 uM by fluorimetric analysis relative to control; conditions: human MAO-B enzyme, probe p-tyramine
T3 sequence (P27338 whole entry): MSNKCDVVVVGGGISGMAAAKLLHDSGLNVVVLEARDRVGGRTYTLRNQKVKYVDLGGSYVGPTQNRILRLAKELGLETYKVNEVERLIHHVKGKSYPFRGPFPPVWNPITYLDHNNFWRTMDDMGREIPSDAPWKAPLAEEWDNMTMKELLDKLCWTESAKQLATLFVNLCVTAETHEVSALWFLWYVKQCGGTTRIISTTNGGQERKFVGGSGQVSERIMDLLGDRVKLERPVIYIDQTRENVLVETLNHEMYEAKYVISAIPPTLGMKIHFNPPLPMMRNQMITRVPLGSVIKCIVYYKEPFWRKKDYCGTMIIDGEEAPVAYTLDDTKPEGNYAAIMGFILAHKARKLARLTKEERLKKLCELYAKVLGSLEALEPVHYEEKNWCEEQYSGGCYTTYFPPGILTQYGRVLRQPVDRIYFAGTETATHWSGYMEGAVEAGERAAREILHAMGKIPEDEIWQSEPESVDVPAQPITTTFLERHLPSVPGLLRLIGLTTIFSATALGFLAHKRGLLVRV

THP-1 [6] = assay: Antiproliferative activity against human THP-1 cells assessed as inhibition of cell growth incubated for 24 hrs by CellTiter-Glo luminescent cell viability assay; assay type: functional, cell-based; conditions: THP-1, 24 h
THP-1 [7] = assay: Antiproliferative activity against human THP-1 cells assessed as inhibition of cell growth incubated for 72 hrs by CellTiter-Glo luminescent cell viability assay; assay type: functional, cell-based; conditions: THP-1, 72 h
THP-1 [8] = assay: Antiproliferative activity against human THP-1 cells assessed as inhibition of cell growth incubated for 144 hrs by CellTiter-Glo luminescent cell viability assay; assay type: functional, cell-based; conditions: THP-1, 144 h
MDA-MB-231 = assay: Antiproliferative activity against human MDA-MB-231 cells assessed as inhibition of cell growth measured after 72 hrs by MTT assay; assay type: functional, cell-based; conditions: MDA-MB-231, 72 h
LSD1/CoREST complex [9] = biological target: T4, LSD1/CoREST complex (Homo sapiens, UniProt O60341); assay: Binding affinity to human LSD1/CoREST assessed as dissociation constant by competitive fluorescence polarization assay; assay type: protein-complex assay
LSD1/CoREST complex [10] = biological target: T4, LSD1/CoREST complex; assay: Inhibition of human LSD1/CoREST using histone H3 peptide as substrate by fluorescence polarization assay; assay type: protein-complex assay
MV4-11 [11] = assay: Antiproliferative activity against human MV4-11 cells assessed as inhibition of cell growth at […] incubated for 72 to 144 hrs by trypan blue staining based analysis; assay type: functional; conditions: dose 2.5 µM, time 72-144 hrs
[12] = biological target: Lysine-specific histone demethylase 1A (Homo sapiens) (UniProt O60341); assay: Inhibition of LSD1 in human MV4-11 cells assessed as increase in H3K4me2 level at 0.2 to […] incubated for 24 hrs by Western blot analysis; assay type: cell-based; conditions: dose 0.2-2.5 µM
[13] = biological target: Lysine-specific histone demethylase 1A (Homo sapiens) (UniProt O60341); assay: Inhibition of LSD1 in human MV4-11 cells assessed as increase in CD86 expression level incubated for 24 hrs by qRT-PCR analysis; assay type: cell-based; conditions: dose 0.2-1 µM
MV4-11 [14] = assay: Induction of cell cycle arrest in human MV4-11 cells assessed as accumulation of cells at G1 phase at 0.2 to […] incubated for 24 hrs; assay type: functional, cell-based; conditions: dose 0.2-2.5 µM
MV4-11 [15] = assay: Induction of apoptosis in human MV4-11 cells assessed as accumulation of cells at sub-G1 phase incubated for 24 hrs; assay type: functional, cell-based; conditions: dose 0.2-25 µM, DDE = dose-dependent effect
RD [16] = assay: Antiproliferative activity against human RD cells assessed as inhibition of cell growth incubated for 24 hrs; assay type: functional, cell-based
RD [17] = assay: Antiproliferative activity against human RD cells assessed as inhibition of cell growth incubated for 72 hrs; assay type: functional, cell-based
RD [18] = assay: Antiproliferative activity against human RD cells assessed as inhibition of cell growth incubated for 144 hrs; assay type: functional, cell-based
SJRH30 [19] = assay: Antiproliferative activity against human Rh30 cells assessed as inhibition of cell growth incubated for 24 hrs; assay type: functional, cell-based; conditions: SJRH30, 24 h
SJRH30 [20] = assay: Antiproliferative activity against human Rh30 cells assessed as inhibition of cell growth incubated for 72 hrs; assay type: functional, cell-based; conditions: SJRH30, 72 h
SJRH30 [21] = assay: Antiproliferative activity against human Rh30 cells assessed as inhibition of cell growth incubated for 144 hrs; assay type: functional, cell-based; conditions: SJRH30, 144 h
[22] = Cytotoxicity against human derived mesenchymal stem cells assessed as residual cell viability at 1.25 uM measured after 72 hrs relative to control; assay type: toxicity, cell-based; conditions: read-out: Activity
[23] = biological target: Lysine-specific histone demethylase 1A (Homo sapiens) (UniProt O60341); assay: Inhibition of LSD1 in human RD cells assessed as increase in H3K4me2 level at 2 uM incubated for 48 hrs by Western blot analysis; assay type: cell-based
[24] = biological target: Lysine-specific histone demethylase 1A (Homo sapiens) (UniProt O60341); assay: Inhibition of LSD1 in human Rh30 cells assessed as increase in H3K4me2 level at 2 uM incubated for 48 hrs by Western blot analysis; assay type: cell-based
SJRH30 [25] = assay: Antiproliferative activity against human Rh30 cells assessed as reduction in live cells at 4 uM incubated for 24 hrs by calceinAM/propidium iodide staining based fluorescence microscopy; assay type: functional, cell-based
RD [26] = assay: Antiproliferative activity against human RD cells assessed as reduction in live cells at 4 uM incubated for 72 hrs by calceinAM/propidium iodide staining based fluorescence microscopy; assay type: functional, cell-based
RD [27] = assay: Induction of apoptosis in human RD cells assessed as increase in caspase 3/7 level at 4 uM incubated for 24 hrs; assay type: functional, cell-based
SJRH30 [28] = assay: Induction of apoptosis in human Rh30 cells assessed as increase in caspase 3/7 level at 4 uM incubated for 24 hrs; assay type: functional, cell-based

Ki [1]: 690 nM
inhibition [2]: 30.3%
inhibition [3]: 2.9%
inhibition at 100 µM [4]: 7.4%
inhibition at 100 µM [5]: 0.3%
IC50 (THP-1 [6]): 490 nM
IC50 (THP-1 [7]): 390 nM
IC50 (THP-1 [8]): 220 nM
IC50 (MDA-MB-231): 800 nM
Compound: COc1cc2nc(NCCCN(C)C)nc(NC3CCN(CCCc4ccccc4)CC3)c2cc1OC

Kd (LSD1/CoREST complex [9]): 64 nM
Ki (LSD1/CoREST complex [10]): 153 nM
Ki [1]: 26100 nM
IC50 (THP-1 [6]): 420 nM
IC50 (THP-1 [7]): 340 nM
IC50 (THP-1 [8]): 160 nM
inhibition [12]: Active
inhibition [13]: Active
IC50 (MDA-MB-231): 3400 nM
inhibition [23]: Active
inhibition [24]: Active
Compound: C#CCN(C)CCCNc1nc(NC2CCN(Cc3ccccc3)CC2)c2cc(OC)c(OC)cc2n1
inhibition (MV4-11 [11]): Active
Activity (MV4-11 [14]): Active
Activity (MV4-11 [15]): Dde
IC50 (RD [16]): 4560 nM
IC50 (RD [17]): 1920 nM
IC50 (RD [18]): 1420 nM
IC50 (SJRH30 [19]): 1760 nM
IC50 (SJRH30 [20]): 1530 nM
IC50 (SJRH30 [21]): 1420 nM
viability at 72 h, 1.25 µM [22]: 96%
Activity (SJRH30 [25]): Active
Activity (RD [26]): Active
Activity (RD [27]): Active
Activity (SJRH30 [28]): Active
